Measured values from US11000033B2, “Ketone or oxime compound, and herbicide” (NISSAN CHEMICAL CORPORATION, priority 2014, dated 2021).

Columns and labels:
Assay type in all cases: in vivo
Scirpus juncoides = assay: Test Example 1: herbicidal activity, application before weed generation in submerged conditions (symbol B); conditions: application herbicide amount 320 g/ha
Summary of the method: (§1)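 Weeds are sown into submerged alluvial soil alongside transplanted 2.5-leaf rice, and the compound, as an emulsion diluted to a set rate, is applied onto the water before emergence. Rating on the 0–5 herbicidal-ratio scale follows 3 weeks of greenhouse growth at 25–30 °C.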

Apera spica-venti = assay: Test Example 5: herbicidal effect by foliage application, plastic box (symbol L); conditions: 320 g/ha, 3 weeks after application
Summary of the method: (§2)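 Seeds were sown in sterilized diluvial soil, covered with about 1.5 cm of soil and grown 14 days in a greenhouse at 25° C. to 30° C. An emulsifiable formulation diluted in water to a set rate was sprayed over foliage, and injury was scored 3 weeks later.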

[1] = system: Echinochloa oryzacola Vasing.; assay: Test Example 1: herbicidal activity, application before weed generation in submerged conditions (symbol A); conditions: application herbicide amount 320 g/ha
Summary of the method: as §1

wheat = assay: Test Example 5: effect on crop by foliage application, plastic box (symbol e); conditions: 320 g/ha, 3 weeks after application
Summary of the method: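 Seeds were sown in spots in sterilized diluvial soil held in a plastic box 21 cm × 13 cm × 7 cm deep, covered with about 1.5 cm of soil, and grown in a greenhouse at 25° C. to 30° C.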

[2] = system: directly sowed rice plant; assay: Test Example 3: effect on crop by foliage application, Wagner pot (symbol b); conditions: application herbicide amount 320 g/ha
Summary of the method: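 Alluvial soil in a 1/10000-are Wagner pot was flooded to a water depth of 0.1–0.5 cm. Echinochloa crus-galli var. crus-galli, Leptochloa chinensis, Cyperus difformis and rice were sown into it and grown in a greenhouse at 25–30 °C.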

Abutilon theophrasti = assay: Test Example 5: herbicidal effect by foliage application, plastic box (symbol M); conditions: 320 g/ha, 3 weeks after application
Summary of the method: as §2

Alopecurus myosuroides [3] = assay: Test Example 5: herbicidal effect by foliage application, plastic box (symbol J); conditions: 320 g/ha, 3 weeks after application
Summary of the method: as §2

Cyperus difformis = assay: Test Example 3: herbicidal effect by foliage application, Wagner pot (symbol E); conditions: application herbicide amount 320 g/ha
Summary of the method: (§3)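 Weeds and rice were sown in alluvial soil under 0.1–0.5 cm of standing water and grown for 14 days in a 25–30 °C greenhouse. An emulsion of the compound, diluted in water to a set dose, was sprayed evenly onto the foliage. Effect was scored against fixed criteria 3 weeks after treatment.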

rapeseed = assay: Test Example 4: effect on crop by soil treatment (symbol g); conditions: for g: rapeseed, effect grade on crop: 320 g/ha
Summary of the method: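 Crop seeds, among them rice, wheat, beet and rapeseed, were sown in sterilized diluvial soil and covered with about 1.5 cm of soil. Boxes were kept in a greenhouse at 25° C. to 30° C. for plant growth.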

Stellaria media = assay: Test Example 5: herbicidal effect by foliage application, plastic box (symbol P); conditions: 320 g/ha, 3 weeks after application
Summary of the method: as §2

Leptochloa chinensis = assay: Test Example 3: herbicidal effect by foliage application, Wagner pot (symbol D); conditions: application herbicide amount 320 g/ha
Summary of the method: as §3

Alopecurus myosuroides [4] = assay: Test Example 4: herbicidal effect by soil treatment (symbol J); conditions: for J: Alopecurus myosuroides, herbicidal effect grade: 320 g/ha
Summary of the method: (§4)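 Seeds were sown in sterilized diluvial soil, covered with about 1.5 cm of soil, and the soil surface was sprayed with a water-diluted emulsion of the compound at a predetermined rate. Plants grew in a greenhouse at 25° C. to 30° C.; effects were scored visually 3 weeks after application.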

[5] = system: Echinochloa crus-galli var. crus-galli; assay: Test Example 3: herbicidal effect by foliage application, Wagner pot (symbol H); conditions: application herbicide amount 320 g/ha
Summary of the method: as §3

corn = assay: Test Example 4: effect on crop by soil treatment (symbol c); conditions: for c: corn, effect grade on crop: 320 g/ha
Summary of the method: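 Seeds were sown in spots on sterilized diluvial soil in a plastic box and covered with about 1.5 cm of soil. Plants were then grown in a greenhouse at 25° C. to 30° C.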

Digitaria ciliaris = assay: Test Example 4: herbicidal effect by soil treatment (symbol F); conditions: for F: Digitaria ciliaris, herbicidal effect grade: 320 g/ha
Summary of the method: as §4

[6] = application herbicide amount 320 g/ha

| Compound | Herbicidal effect grade, B: Scirpus juncoides (Scirpus juncoides) | L: Apera spica-venti, herbicidal effect (criteria 0-5) (Apera spica-venti) | Herbicidal effect grade, A: Echinochloa oryzacola Vasing. [1] | e: wheat, effect on crop (criteria 0-5) (wheat) | effect on crop b (directly sowed rice plant), grade 0-5 [2] | M: Abutilon theophrasti, herbicidal effect (criteria 0-5) (Abutilon theophrasti) | J: Alopecurus myosuroides, herbicidal effect (criteria 0-5) (Alopecurus myosuroides [3]) | herbicidal effect on E, grade 0-5 (Cyperus difformis) | g: rapeseed, effect grade on crop (rapeseed) | P: Stellaria media, herbicidal effect (criteria 0-5) (Stellaria media) | herbicidal effect on D (Leptochloa chinensis), grade 0-5 (Leptochloa chinensis) | J: Alopecurus myosuroides, herbicidal effect grade (Alopecurus myosuroides [4]) | herbicidal effect on H (Echinochloa crus-galli var. crus-galli), grade 0-5 [5] | c: corn, effect grade on crop (corn) | F: Digitaria ciliaris, herbicidal effect grade (Digitaria ciliaris) | also measured |
| --- | --- | --- | --- | --- | --- | --- | --- | --- | --- | --- | --- | --- | --- | --- | --- | --- |
| CON=C(C)CC1CC(OC(=O)COc2ccc(C(C)=O)cc2)=C(c2c(C)cc(C)cc2C)C1=O (stereo not drawn) [1-080] | 5 (Herbicidal ratio of 90% or more (almost completely withered)) | 5 (Herbicidal ratio of 90% or more (almost completely withered)) | 5 (Herbicidal ratio of 90% or more (almost completely withered)) | 4 (Herbicidal ratio of 70% or higher and lower than 90%) | 5 (Herbicidal ratio of 90% or more (almost completely withered)) | 4 (Herbicidal ratio of 70% or higher and lower than 90%) | 5 (Herbicidal ratio of 90% or more (almost completely withered)) | 5 (Herbicidal ratio of 90% or more (almost completely withered)) | 4 (Herbicidal ratio of 70% or higher and lower than 90%) | 0 (Herbicidal ratio of 5% or lower (almost no effect)) | 5 (Herbicidal ratio of 90% or more (almost completely withered)) | 5 (Herbicidal ratio of 90% or more (almost completely withered)) | 5 (Herbicidal ratio of 90% or more (almost completely withered)) | 4 (Herbicidal ratio of 70% or higher and lower than 90%) | 5 (Herbicidal ratio of 90% or more (almost completely withered)) |  |
| CON=C(C)CC1CC(OC(=O)C=Cc2ccco2)=C(c2c(C)cc(C)cc2C)C1=O (stereo not drawn) [1-091] | 5 (Herbicidal ratio of 90% or more (almost completely withered)) | 5 (Herbicidal ratio of 90% or more (almost completely withered)) | 5 (Herbicidal ratio of 90% or more (almost completely withered)) | 5 (Herbicidal ratio of 90% or more (almost completely withered)) | 5 (Herbicidal ratio of 90% or more (almost completely withered)) | 4 (Herbicidal ratio of 70% or higher and lower than 90%) | 5 (Herbicidal ratio of 90% or more (almost completely withered)) | 5 (Herbicidal ratio of 90% or more (almost completely withered)) | 3 (Herbicidal ratio of 40% or higher and lower than 70%) | 0 (Herbicidal ratio of 5% or lower (almost no effect)) | 5 (Herbicidal ratio of 90% or more (almost completely withered)) | 5 (Herbicidal ratio of 90% or more (almost completely withered)) | 5 (Herbicidal ratio of 90% or more (almost completely withered)) | 5 (Herbicidal ratio of 90% or more (almost completely withered)) | 5 (Herbicidal ratio of 90% or more (almost completely withered)) |  |
| CON=C(C)CC1CC(OC(=O)COCC(F)(F)F)=C(c2c(C)cc(C)cc2C)C1=O (stereo not drawn) [1-092] | 5 (Herbicidal ratio of 90% or more (almost completely withered)) | 5 (Herbicidal ratio of 90% or more (almost completely withered)) | 5 (Herbicidal ratio of 90% or more (almost completely withered)) | 4 (Herbicidal ratio of 70% or higher and lower than 90%) | 5 (Herbicidal ratio of 90% or more (almost completely withered)) | 3 (Herbicidal ratio of 40% or higher and lower than 70%) | 4 (Herbicidal ratio of 70% or higher and lower than 90%) | 5 (Herbicidal ratio of 90% or more (almost completely withered)) | 4 (Herbicidal ratio of 70% or higher and lower than 90%) | 0 (Herbicidal ratio of 5% or lower (almost no effect)) | 5 (Herbicidal ratio of 90% or more (almost completely withered)) | 4 (Herbicidal ratio of 70% or higher and lower than 90%) | 5 (Herbicidal ratio of 90% or more (almost completely withered)) | 5 (Herbicidal ratio of 90% or more (almost completely withered)) | 5 (Herbicidal ratio of 90% or more (almost completely withered)) |  |
| CC#CC(=O)OC1=C(c2c(C)cc(C)cc2C)C(=O)C(CC(C)=NOC)C1 (stereo not drawn) [1-095] | 5 (Herbicidal ratio of 90% or more (almost completely withered)) | 5 (Herbicidal ratio of 90% or more (almost completely withered)) | 5 (Herbicidal ratio of 90% or more (almost completely withered)) | 5 (Herbicidal ratio of 90% or more (almost completely withered)) | 5 (Herbicidal ratio of 90% or more (almost completely withered)) | 4 (Herbicidal ratio of 70% or higher and lower than 90%) | 5 (Herbicidal ratio of 90% or more (almost completely withered)) | 5 (Herbicidal ratio of 90% or more (almost completely withered)) | 4 (Herbicidal ratio of 70% or higher and lower than 90%) | 2 (Herbicidal ratio of 20% or higher and lower than 40%) | 5 (Herbicidal ratio of 90% or more (almost completely withered)) | 5 (Herbicidal ratio of 90% or more (almost completely withered)) | 5 (Herbicidal ratio of 90% or more (almost completely withered)) | 5 (Herbicidal ratio of 90% or more (almost completely withered)) | 5 (Herbicidal ratio of 90% or more (almost completely withered)) |  |
| CON=C(CC1CC(O)=C(c2c(C)cc(Br)cc2C)C1=O)C(C)C (stereo not drawn) [9-001] | 0 (Herbicidal ratio of 5% or lower (almost no effect)) |  | 4 (Herbicidal ratio of 70% or higher and lower than 90%) |  |  |  |  |  |  |  |  |  |  |  |  | L: Apera spica-venti, herbicidal effect grade (Apera spica-venti): 3 (Herbicidal ratio of 40% or higher and lower than 70%); e: wheat, effect on crop grade (wheat): 0 (Herbicidal ratio of 5% or lower (almost no effect)); b (directly sowed rice plant) effect on crop grade ([2]; Table 24): 5 (Herbicidal ratio of 90% or more (almost completely withered)); M: Abutilon theophrasti, herbicidal effect grade (Abutilon theophrasti): 0 (Herbicidal ratio of 5% or lower (almost no effect)); J: Alopecurus myosuroides, herbicidal effect grade (Alopecurus myosuroides [3]): 3 (Herbicidal ratio of 40% or higher and lower than 70%); E herbicidal effect grade (Cyperus difformis; Table 24): 2 (Herbicidal ratio of 20% or higher and lower than 40%); Effect on crop grade, g: rapeseed (rapeseed; [6]): 0 (Herbicidal ratio of 5% or lower (almost no effect)); P: Stellaria media, herbicidal effect grade (Stellaria media): 0 (Herbicidal ratio of 5% or lower (almost no effect)); D (Leptochloa chinensis) herbicidal effect grade (Leptochloa chinensis; Table 24): 4 (Herbicidal ratio of 70% or higher and lower than 90%); Herbicidal effect grade, J: Alopecurus myosuroides (Alopecurus myosuroides [4]; [6]): 3 (Herbicidal ratio of 40% or higher and lower than 70%); H (Echinochloa crus-galli var. crus-galli) herbicidal effect grade ([5]; Table 24): 5 (Herbicidal ratio of 90% or more (almost completely withered)); Effect on crop grade, c: corn (corn; [6]): 0 (Herbicidal ratio of 5% or lower (almost no effect)); Herbicidal effect grade, F: Digitaria ciliaris (Digitaria ciliaris; [6]): 4 (Herbicidal ratio of 70% or higher and lower than 90%) |
